Results as given in patent US9387209B2, “Histone deacetylases (HDACs) inhibitors” (ANNJI PHARMACEUTICAL CO., LTD., priority 2012, dated 2016).

What was measured:
[1] = target: T1, zinc-mediated β-amyloid aggregation (Homo sapiens, UniProt P05067); experiment: Anti-amyloid aggregation assay, BCA; type: biochemical; details: detected by BCA
Description: (§1) Anti-Amyloid Aggregation Assay.
(§2) The effects of compounds on inhibition of β-amyloid aggregation were assayed. The levels of β-amyloid aggregates were determined by thioflavin S, BCA or CR assays (Tables 1). Thioflavin S, and Congo red are for in vitro staining of aggregated β-amyloid. Bicinchoninic acid (BCA) assay determines the total protein level or concentration.

[2] = target: T2, human histone deacetylases (HDAC) 6 (Homo sapiens, UniProt Q9UBN7); experiment: HDAC enzymatic assay, HDAC6; type: biochemical; details: for IC50: HDAC6, read-out: IC50 HDAC6 (grading); for selective inhibitions on HDAC6: HDAC6 versus other HDACs
T2 sequence (Q9UBN7 1-1215): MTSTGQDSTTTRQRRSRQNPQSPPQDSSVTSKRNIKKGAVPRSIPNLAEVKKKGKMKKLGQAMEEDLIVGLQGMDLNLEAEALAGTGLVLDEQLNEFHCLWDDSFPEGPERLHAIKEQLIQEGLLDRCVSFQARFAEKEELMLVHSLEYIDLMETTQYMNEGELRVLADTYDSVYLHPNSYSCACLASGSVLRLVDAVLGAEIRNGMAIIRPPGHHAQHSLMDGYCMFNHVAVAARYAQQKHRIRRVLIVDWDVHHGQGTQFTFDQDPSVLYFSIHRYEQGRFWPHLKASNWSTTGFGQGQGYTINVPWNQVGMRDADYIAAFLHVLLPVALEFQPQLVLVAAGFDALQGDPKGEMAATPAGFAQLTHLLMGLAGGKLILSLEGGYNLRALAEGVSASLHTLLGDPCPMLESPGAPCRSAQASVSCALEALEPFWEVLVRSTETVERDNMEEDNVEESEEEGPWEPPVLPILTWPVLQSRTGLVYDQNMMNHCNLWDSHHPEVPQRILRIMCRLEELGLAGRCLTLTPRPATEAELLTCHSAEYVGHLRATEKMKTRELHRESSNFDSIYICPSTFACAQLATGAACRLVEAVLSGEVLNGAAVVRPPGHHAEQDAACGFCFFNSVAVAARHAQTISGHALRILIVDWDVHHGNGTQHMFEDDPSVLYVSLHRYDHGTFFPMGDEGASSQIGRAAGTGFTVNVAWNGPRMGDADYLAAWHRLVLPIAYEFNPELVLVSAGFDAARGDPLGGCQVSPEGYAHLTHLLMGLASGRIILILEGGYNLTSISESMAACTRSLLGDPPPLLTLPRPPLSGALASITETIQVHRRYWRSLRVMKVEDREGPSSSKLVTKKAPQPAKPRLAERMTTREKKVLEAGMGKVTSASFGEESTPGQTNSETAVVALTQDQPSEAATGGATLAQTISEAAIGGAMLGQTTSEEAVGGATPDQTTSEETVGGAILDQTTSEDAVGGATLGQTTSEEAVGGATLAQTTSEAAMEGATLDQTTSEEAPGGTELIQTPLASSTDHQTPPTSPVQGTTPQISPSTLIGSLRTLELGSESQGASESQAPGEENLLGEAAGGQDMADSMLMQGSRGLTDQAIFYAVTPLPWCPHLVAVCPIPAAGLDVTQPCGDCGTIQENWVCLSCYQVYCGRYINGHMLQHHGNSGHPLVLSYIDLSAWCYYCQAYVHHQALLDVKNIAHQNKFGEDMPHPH

[3] = target: human histone deacetylases (HDAC) 1 (Homo sapiens, UniProt Q13547); experiment: HDAC enzymatic assay, HDAC1; type: biochemical; details: read-out: IC50 HDAC1 (grading)
Sequence of human histone deacetylases (HDAC) 1 (Q13547 whole entry): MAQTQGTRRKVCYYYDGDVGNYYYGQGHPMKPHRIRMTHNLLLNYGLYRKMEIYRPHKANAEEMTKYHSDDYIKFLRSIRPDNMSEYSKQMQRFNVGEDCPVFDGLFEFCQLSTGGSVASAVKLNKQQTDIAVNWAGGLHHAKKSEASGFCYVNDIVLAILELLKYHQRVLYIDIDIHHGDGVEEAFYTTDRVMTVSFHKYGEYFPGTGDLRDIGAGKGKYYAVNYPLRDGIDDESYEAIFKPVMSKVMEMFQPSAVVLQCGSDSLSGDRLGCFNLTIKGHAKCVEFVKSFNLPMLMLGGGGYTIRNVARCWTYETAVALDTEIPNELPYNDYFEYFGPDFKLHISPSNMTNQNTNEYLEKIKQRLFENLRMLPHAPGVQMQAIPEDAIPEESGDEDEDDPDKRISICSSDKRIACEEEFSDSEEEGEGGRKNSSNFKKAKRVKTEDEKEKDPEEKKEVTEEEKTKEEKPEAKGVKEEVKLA

SH-SY5Y cells [4] = experiment: Neurite synaptic uptake activity (FM1-43), SH-SY5Y; type: cell-based; details: Homo sapiens, NGF positive control taken as 100%, read-out: uptake of dye FM1-43 EC50
Description: (§3) Neurite Synaptic Uptake Activity Analysis.
(§4) The effects of compounds on the neuronal synapse uptake of fluorescent indicator FM1-43 were assayed. The uptake of the dye indicated the synaptic function of the neurites. PC 12 and SH-SY5Y cells were used. Cells in experimental groups were treated with a test compound and FM1-43; Cells in positive control were treated with NGF and FM1-43; Cells in negative control were treated with a vehicle and FM1-43. The fluorescence in the positive control were taken as 100%.

[5] = target: T3, human histone deacetylases (HDAC) 8 (Homo sapiens, UniProt Q9BY41); experiment: HDAC enzymatic assay, HDAC8; type: biochemical; details: HDAC8; read-out: IC50 HDAC8 (grading)
T3 sequence (Q9BY41 1-377): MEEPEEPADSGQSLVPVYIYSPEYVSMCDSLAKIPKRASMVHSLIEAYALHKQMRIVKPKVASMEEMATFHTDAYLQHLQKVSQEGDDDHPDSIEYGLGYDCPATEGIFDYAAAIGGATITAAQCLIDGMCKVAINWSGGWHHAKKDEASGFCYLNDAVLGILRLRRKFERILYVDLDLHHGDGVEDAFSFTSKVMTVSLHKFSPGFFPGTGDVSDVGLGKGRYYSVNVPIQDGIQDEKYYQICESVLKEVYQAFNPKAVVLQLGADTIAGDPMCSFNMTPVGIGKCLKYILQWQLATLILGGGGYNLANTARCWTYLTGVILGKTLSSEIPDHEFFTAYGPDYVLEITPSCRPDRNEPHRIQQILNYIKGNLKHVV

[6] = target: T1, zinc-mediated β-amyloid aggregation; experiment: Anti-amyloid aggregation assay, CR (Congo red); type: biochemical; details: detected by CR
Description: as §1, §2

PC 12 cells [7] = experiment: Neurite synaptic uptake activity (FM1-43), PC 12; type: cell-based; details: Rattus norvegicus, NGF positive control taken as 100%, read-out: uptake of dye FM1-43 EC50
Description: as §3, §4

PC 12 cells [8] = experiment: Neurite outgrowth assay, PC 12; type: cell-based; details: Rattus norvegicus
SH-SY5Y cells [9] = experiment: Neurite outgrowth assay, SH-SY5Y; type: cell-based; details: Homo sapiens
[10] = target: T1, zinc-mediated β-amyloid aggregation; experiment: Anti-amyloid aggregation assay, thioflavin S; type: biochemical; details: detected by thioflavin S
Description: as §1, §2

[11] = MTT or SRB assay for cytotoxicity, HepG2; type: cell-based; details: human, HepG2 cells, read-out: cytotoxicity IC50 (grading) HepG2
Description: (§5) MTT or SRB Assays for Cytotoxicities of HDAC Inhibitors.
(§6) These compounds were assayed for cytotoxicities to the following cells: A549 cells (adenocarcinomic human alveolar basal epithelial cells), HCT-116 cells (human colon carcinoma cells). PANC-1 cells (human pancreatic carcinoma, epithelial-like cell line) and HepG2 cells (human liver hepatocellular carcinoma cell line), neuronal cells PC12 (rat pheochromocytoma cell line) and SH-SY5Y (human neuroblastoma cell line). MTT (3-[4,5-dimethylthiazol-2-yl]2,5-diphenyl-tetrazolium bromide) reduction was collaborated by using trypan blue exclusion assay.

[12] = MTT or SRB assay for cytotoxicity, HCT116; type: cell-based; details: human, HCT-116 cells, read-out: cytotoxicity IC50 (grading) HCT116
Description: as §5, §6

[13] = MTT or SRB assay for cytotoxicity, A549; type: cell-based; details: human, A549 cells, read-out: cytotoxicity IC50 (grading) A549
Description: as §5, §6

[14] = MTT or SRB assay for cytotoxicity, PANC1; type: cell-based; details: human, PANC-1 cells, read-out: cytotoxicity IC50 (grading) PANC1
Description: as §5, §6

T1 sequence (P05067 672-711 limits assumed): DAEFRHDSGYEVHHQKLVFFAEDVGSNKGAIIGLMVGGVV

Row | Compound | IC50 [1] [µM] | IC50 [2] [µM] | IC50 [3] [µM] | EC50 (SH-SY5Y cells [4]) [µM] | IC50 [5] [µM] | IC50 [6] [µM] | EC50 (PC 12 cells [7]) [µM] | selective inhibitions on HDAC6 [2] | EC50 (SH-SY5Y cells [9]) [µM] | IC50 [10] [µM] | melting point | EC50 (PC 12 cells [8]) [µM] | IC50 [11] [µM] | IC50 [12] [µM] | IC50 [13] [µM] | IC50 [14] [µM]
1 | Cc1nc2cccc(/C=C/C(=O)NO)c2c(=O)n1-c1ccccc1 [Compound 1a, (2E)-3-(3,4-dihydro-2-methyl-4-oxo-3-phenylquinazolin-5-yl)-N-hydroxyacrylamide] | 10.1 | < 0.1 | > 10 | 14.7 ± 1.58 | 1 to 10 | 30.2 | 8.15 ± 0.39 |  |  |  |  |  |  |  |  | 
2 | Cc1nc2ccc(/C=C/C(=O)NO)cc2c(=O)n1-c1ccccc1 [Compound 1b, (2E)-3-(3,4-dihydro-2-methyl-4-oxo-3-phenylquinazolin-6-yl)-N-hydroxyacrylamide] | 10.1 | < 0.1 | 1 to 10 |  | 0.1 to 1 | 4.8 |  | selective inhibitions on HDAC6 |  |  |  |  |  |  |  | 
3 | Cc1nc2c(/C=C/C(=O)NO)cccc2c(=O)n1-c1ccccc1 [Compound 1d, (2E)-3-(3,4-dihydro-2-methyl-4-oxo-3-phenylquinazolin-8-yl)-N-hydroxyacrylamide] | 11.7 | 0.1 to 1 | > 10 | 8.03 ± 0.53 | 0.1 to 1 | 14.5 | 7.81 ± 0.65 |  |  |  |  |  |  |  |  | 
4 | Cc1nc2cc(/C=C/C(=O)NO)ccc2c(=O)n1CCc1c[nH]c2ccccc12 [Compound 1g, (2E)-3-(3-(2-(1H-indol-3-yl)ethyl)-3,4-dihydro-2-methyl-4-oxoquinazolin-7-yl)-N-hydroxyacrylamide] | 11.1 | < 0.1 | 0.1 to 1 |  | 1 to 10 | 15.5 |  | selective inhibitions on HDAC6 |  | 7.4 |  |  |  |  |  | 
5 | O=C(/C=C/c1ccc2c(=O)n(CCc3ccccc3)cnc2c1)NO [Compound 1h, (2E)-3-(3,4-dihydro-4-oxo-3-phenethylquinazolin-7-yl)-N-hydroxyacrylamide] | 35 | < 0.1 | 0.1 to 1 | 4.93 ± 1.34 | 0.1 to 1 | 14.6 | 14.5 ± 1.47 | selective inhibitions on HDAC6 | 4.93 ± 1.34 | 5.5 | 197 to 199 °C (dec.) | 14.5 ± 1.47 |  |  |  | 
6 | CCc1nc2cc(/C=C/C(=O)NO)ccc2c(=O)n1CCc1ccc(F)cc1 [Compound 1n, (2E)-3-(3-(4-fluorophenethyl)-2-ethyl-3,4-dihydro-4-oxoquinazolin-7-yl)-N-hydroxyacrylamide] |  | < 0.1 | 1 to 10 | 22.2 ± 2.01 | 0.1 to 1 |  | 13.9 ± 0.94 |  | 22.2 ± 2.01 |  | 195 to 197 °C (dec.) | 13.9 ± 0.94 | 1 to 10 | 1 to 10 | 1 to 10 | 1 to 10
7 | CCc1nc2cc(Cc3ccc(C(=O)NO)cc3)ccc2c(=O)n1CCc1ccccc1 [Compound 4b, 4-((2-ethyl-3,4-dihydro-4-oxo-3-phenethylquinazolin-7-yl)methyl)-N-hydroxybenzamide] |  | < 0.1 |  |  |  |  |  | selective inhibitions on HDAC6 |  |  | 181 to 183 °C (dec.) |  | 0.1 to 1 | 1 to 10 | 1 to 10 | 1 to 10

Second part, led by results:

Row | IC50 [1] [µM] | IC50 [2] [µM] | IC50 [3] [µM] | EC50 (SH-SY5Y cells [4]) [µM] | IC50 [5] [µM] | IC50 [6] [µM] | EC50 (PC 12 cells [7]) [µM] | selective inhibitions on HDAC6 [2] | EC50 (SH-SY5Y cells [9]) [µM] | IC50 [10] [µM] | melting point | Compound | EC50 (PC 12 cells [8]) [µM] | IC50 [11] [µM] | IC50 [12] [µM] | IC50 [13] [µM] | IC50 [14] [µM]
8 | 10.6 | < 0.1 | 1 to 10 | 8.2 ± 0.92 | 1 to 10 | 5.8 | 8.21 ± 0.37 | selective inhibitions on HDAC6 | 8.2 ± 0.92 | 18.1 |  | Cc1nc2cc(/C=C/C(=O)NO)ccc2c(=O)n1Cc1ccccc1 [Compound 1e, (2E)-3-(3-benzyl-3,4-dihydro-2-methyl-4-oxoquinazolin-7-yl)-N-hydroxyacrylamide] | 8.21 ± 0.37 |  |  |  | 
9 | 3.9 | < 0.1 | 1 to 10 | 0.88 ± 0.45 | 1 to 10 | 5.5 | 7.21 ± 0.32 | selective inhibitions on HDAC6 | 0.88 ± 0.45 | 6.8 | 209 to 211 °C | CCc1nc2cc(/C=C/C(=O)NO)ccc2c(=O)n1CCc1ccccc1 [Compound 1i, (2E)-3-(2-ethyl-3,4-dihydro-4-oxo-3-phenethylquinazolin-7-yl)-N-hydroxyacrylamide] | 7.21 ± 0.32 | 1 to 10 | ≥ 10 | ≥ 10 | ≥ 10
10 |  | < 0.1 | 1 to 10 | 20.6 ± 2.51 | 0.1 to 1 |  | 20.6 ± 3.12 |  | 20.6 ± 2.51 |  | 215 to 217 °C | CCc1nc2cc(/C=C/C(=O)NO)ccc2c(=O)n1CCc1ccc(OC)cc1 [Compound 1m] | 20.6 ± 3.12 | 1 to 10 | 1 to 10 | 1 to 10 | 1 to 10
11 |  | < 0.1 | 1 to 10 |  | 0.1 to 1 |  | 0.78 ± 0.49 | selective inhibitions on HDAC6 |  |  | 183 to 185 °C (dec.) | CCc1nc2cc(F)c(/C=C/C(=O)NO)cc2c(=O)n1CCc1ccccc1 [Compound 3a, (2E)-3-(2-ethyl-7-fluoro-3,4-dihydro-4-oxo-3-phenethylquinazolin-6-yl)-N-hydroxyacrylamide] |  | ≥ 10 | ≥ 10 | 1 to 10 | ≥ 10
